For orientation: IC50 means the concentration at which inhibition is half-maximal. Higher therefore signals a need for much substance. For orientation: inhibition means the relative decrease from the control value, in per cent.

The target of the first assay is T1, Nav1.8 channels (Homo sapiens, UniProt Q9Y5Y9).
T1 construct: expressed in transfected cells
T1 sequence (Q9Y5Y9 whole entry): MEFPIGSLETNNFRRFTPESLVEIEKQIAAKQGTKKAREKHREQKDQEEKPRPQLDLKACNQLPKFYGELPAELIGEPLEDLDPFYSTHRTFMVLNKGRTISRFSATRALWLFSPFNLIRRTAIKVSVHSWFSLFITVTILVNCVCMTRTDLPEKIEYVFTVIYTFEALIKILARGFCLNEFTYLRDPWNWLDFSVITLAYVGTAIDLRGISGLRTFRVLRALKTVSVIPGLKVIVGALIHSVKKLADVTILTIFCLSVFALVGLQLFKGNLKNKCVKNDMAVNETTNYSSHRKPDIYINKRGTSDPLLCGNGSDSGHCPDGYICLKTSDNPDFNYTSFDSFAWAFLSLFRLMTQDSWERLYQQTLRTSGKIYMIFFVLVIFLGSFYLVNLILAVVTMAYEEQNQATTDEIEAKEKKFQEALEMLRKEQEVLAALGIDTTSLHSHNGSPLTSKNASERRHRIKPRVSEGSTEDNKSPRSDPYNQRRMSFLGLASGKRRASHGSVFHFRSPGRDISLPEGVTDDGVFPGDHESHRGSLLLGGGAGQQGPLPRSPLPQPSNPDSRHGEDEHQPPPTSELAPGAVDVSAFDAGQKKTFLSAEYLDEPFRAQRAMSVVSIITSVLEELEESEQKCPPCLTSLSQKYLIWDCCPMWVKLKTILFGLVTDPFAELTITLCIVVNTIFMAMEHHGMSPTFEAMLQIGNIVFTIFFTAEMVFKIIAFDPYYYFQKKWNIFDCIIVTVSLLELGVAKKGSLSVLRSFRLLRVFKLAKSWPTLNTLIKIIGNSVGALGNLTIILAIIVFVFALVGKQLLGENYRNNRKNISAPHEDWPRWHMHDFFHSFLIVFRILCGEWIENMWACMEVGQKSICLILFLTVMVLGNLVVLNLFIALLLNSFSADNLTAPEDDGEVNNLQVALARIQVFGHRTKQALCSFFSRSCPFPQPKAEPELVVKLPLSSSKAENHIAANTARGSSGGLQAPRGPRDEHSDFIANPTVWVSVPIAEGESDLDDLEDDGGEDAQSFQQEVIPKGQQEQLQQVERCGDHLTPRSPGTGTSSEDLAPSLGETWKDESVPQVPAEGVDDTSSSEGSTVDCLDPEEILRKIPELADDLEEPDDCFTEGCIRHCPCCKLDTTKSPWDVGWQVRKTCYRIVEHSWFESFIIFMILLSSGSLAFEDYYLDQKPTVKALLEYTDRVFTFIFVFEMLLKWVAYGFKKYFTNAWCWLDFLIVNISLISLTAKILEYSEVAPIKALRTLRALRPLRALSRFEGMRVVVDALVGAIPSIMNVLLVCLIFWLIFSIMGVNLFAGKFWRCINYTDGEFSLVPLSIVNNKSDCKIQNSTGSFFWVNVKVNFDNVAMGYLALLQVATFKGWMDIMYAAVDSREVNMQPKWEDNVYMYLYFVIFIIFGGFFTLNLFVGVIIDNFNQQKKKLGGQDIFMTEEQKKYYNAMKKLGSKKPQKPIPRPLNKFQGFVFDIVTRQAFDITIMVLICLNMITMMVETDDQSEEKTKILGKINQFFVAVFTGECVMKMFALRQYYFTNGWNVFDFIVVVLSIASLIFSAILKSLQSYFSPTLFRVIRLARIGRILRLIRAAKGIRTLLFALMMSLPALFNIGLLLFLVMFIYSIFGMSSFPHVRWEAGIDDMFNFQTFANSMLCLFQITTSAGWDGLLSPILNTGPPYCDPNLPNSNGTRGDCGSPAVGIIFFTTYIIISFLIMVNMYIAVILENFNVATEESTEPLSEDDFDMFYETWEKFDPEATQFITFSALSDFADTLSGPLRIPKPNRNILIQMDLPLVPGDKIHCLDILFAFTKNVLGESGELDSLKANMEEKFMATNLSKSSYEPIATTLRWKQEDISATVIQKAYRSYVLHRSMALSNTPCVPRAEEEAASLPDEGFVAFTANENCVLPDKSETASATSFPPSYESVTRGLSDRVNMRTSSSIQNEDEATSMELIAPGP
In words: Manual patch-clamp, current of stably overexpressed Nav1.8 channels (resting state voltage program). Format: cell-based.
Conditions: not given
Here is the method: Experimental Example 1: Effects of test substances on current of stably overexpressed Nav1.8 channels monitored via manual patch-clamp technique
Test compounds were dissolved in dimethyl sulfoxide (DMSO).
The extracellular fluid was as follows: 140 mM NaCl, 3.5 mM KCl, 1 mM MgCl2•6H2O, 2 mM CaCl2•2H2O, 10 mM D-Glucose, 10 mM HEPES, 1.25 mM NaH2PO4•2H2O; the pH was adjusted to 7.4 with NaOH. The intracellular fluid was as follows: 50 mM CsCl, 10 mM NaCl, 10 mM HEPES, 60 mM CsF, 20 mM EGTA; the pH was adjusted to 7.2 with CsOH.
2. Experimental materials and instruments
• 1) patch-clamp amplifier: EPC 10 (HEKA) • 2) micromanipulator: MP225 (Sutter Instrument) • 3) inverted microscope: MF53 (Mshot) • 4) micropipette puller: P97 (Sutter Instrument) • 5) capillary glass tube: BF150-86-10 (Sutter Instrument)
3. Experimental procedures
• 1) After the compounds were prepared into solutions with specified concentrations, the solutions were sequentially added to the pipeline of the drug delivery system and labeled. • 2) The cell climbing coverslip was placed in the recording chamber, the appropriate cells were selected under the inverted microscope, and the position of the drug delivery tip was adjusted. • 3) A capillary glass tube was pulled into a suitable recording electrode using the micropipette puller, and then the electrode filled with the intracellular fluid was mounted in the microelectrode holder. The micromanipulator was adjusted under the inverted microscope to allow the recording electrode to contact the cell, and negative pressure was applied to the electrode to form a high-resistance seal. At this time, fast capacitance compensation was performed, and then the application of negative pressure was continued to break the cell membrane, forming a whole-cell recording mode. Finally, slow capacitance compensation was performed, and related parameters were recorded. • 4) After the cell current stabilized, administration was started. Each concentration of the drug was applied for five minutes or until the current stabilized before proceeding to monitor the next concentration. The drug solutions were administered via gravity-fed delivery, flowing through the recording chamber to act on the cells in an ascending order of concentration (from low to high). A peristaltic pump was employed for solution exchange in the recording process.
4 Test voltage program (resting state) and results
After the formation of the whole-cell seal, the cell voltage was clamped at -120 mV, followed by depolarization to 0 mV using a square-wave pulse with a duration of 50 ms to elicit Nav1.8 currents. This procedure was repeated every 20 s to monitor the maximum current induced by the square wave. After the current stabilized, the test compounds were administered. Once the response stabilized, the intensity of the current block was calculated.
(In patch-clamp work, channel activity is measured electrically.)
For the compound `COc1c(C2CC(C)(C(F)(F)F)SC2C(=O)Nc2ccc(F)c(B(O)O)c2)ccc(F)c1F` (stereo not drawn) [Compound 19, (5-(3-(3,4-difluoro-2-methoxyphenyl)-5-methyl-5-(trifluoromethyl)tetrahydrothiophene-2-carboxamido)-2-fluorophenyl)boronic acid], it took 0.33 nM to reach half-maximal inhibition (IC50).

The assay is the same for the next values; noted with them: concentration of 1 nM, read-out: Inhibition rate %.
For the compound `COc1c(C2C(C(=O)Nc3ccnc(C(N)=O)c3)SC(C)(C(F)(F)F)C2C)ccc(F)c1F` (stereo not drawn) [Compound 136, 4-(3-(3,4-difluoro-2-methoxyphenyl)-4,5-dimethyl-5-(trifluoromethyl)tetrahydrothiophene-2-carboxamido)picolinamide], the inhibition at 0.001 µM was 61.9%.
On the same count and under the same terms, with `COc1c(C2CC(C)(C(F)(F)F)SC2C(=O)Nc2ccnc(N)c2)ccc(F)c1F` (stereo not drawn) [Compound 175, (4-(3-(3,4-difluoro-2-methoxyphenyl)-5-methyl-5-(trifluoromethyl)tetrahydrothiophene-2-carboxamido)-2-amino)pyridine] the figure was 87.8%.

Staying with this assay, now noted: concentration of 10 nM, 0.01 µM.
`COc1c(C2CC(C)(C)SC2C(=O)Nc2ccnc(C(N)=O)c2)ccc(F)c1F` (stereo not drawn) [Compound 134-A, 4-(3-(3,4-difluoro-2-methoxyphenyl)-5,5-dimethyltetrahydrothiophene-2-carboxamido)picolinamide] registered an Inhibition rate (%) of 87.78%.

Still in this assay, the particulars now being: concentration of 10 nM, read-out: Inhibition rate %.
For the compound `COc1c(C2CC(C)(C(F)(F)F)SC2C(=O)Nc2cccc(B(O)O)c2)ccc(F)c1F` (stereo not drawn) [Compound 9, (3-(3-(3,4-difluoro-2-methoxyphenyl)-5-methyl-5-(trifluoromethyl)tetrahydrothiophene-2-carboxamido)phenyl)boronic acid], the inhibition at 0.01 µM worked out at 84.9%.
The same measure, in the same setting: the value for `[2H][C@@]1(C(=O)Nc2cccc(B(O)O)c2)S[C@@](C)(C(F)(F)F)C[C@H]1c1ccc(F)c(F)c1OC` [Compound 10-A] was 87.5%.
The same measure, in the same setting: with `[2H]C1(C(=O)Nc2ccc(F)c(B(O)O)c2)SC(C)(C(F)(F)F)CC1c1ccc(F)c(F)c1OC` (stereo not drawn) [Compound 20-A, (5-(3-(3,4-difluoro-2-methoxyphenyl)-5-methyl-5-(trifluoromethyl)tetrahydrothiophene-2-carboxamido-2-d)-2-fluorophenyl)boronic acid] the figure was 87.9%; with `COc1c(C2CC(C)(C(F)(F)F)SC2C(=O)Nc2ccc3c(c2)B(O)OC3)ccc(F)c1F` (stereo not drawn) [Compound 31, 3-(3,4-difluoro-2-methoxyphenyl)-N-(1-hydroxy-1,3-dihydrobenzo[c][1,2]oxaborol-6-yl)-5-methyl-5-(trifluoromethyl)tetrahydrothiophene-2-carboxamide], 65%.
Same read-out and setting: the value for `COc1c([C@@H]2C[C@](C)(C(F)(F)F)S[C@H]2C(=O)Nc2ccc3c(c2)B(O)OC3)ccc(F)c1F` [Compound 31-A, (2R,3S,5R)-3-(3,4-difluoro-2-methoxyphenyl)-N-(1-hydroxy-1,3-dihydrobenzo[c][1,2]oxaborol-6-yl)-5-methyl-5-(trifluoromethyl)tetrahydrothiophene-2-carboxamide] was 84.7%; that for `COc1c(C2CC(C)(C(F)(F)F)SC2C(=O)Nc2csc(B(O)O)c2)ccc(F)c1F` (stereo not drawn) [Compound 48, (4-(3-(3,4-difluoro-2-methoxyphenyl)-5-methyl-5-(trifluoromethyl)tetrahydrothiophene-2-carboxamido)thiophen-2-yl)boronic acid] was 79.8%; that for `COc1c([C@@H]2C[C@](C)(C(F)(F)F)S[C@H]2C(=O)Nc2csc(B(O)O)c2)ccc(F)c1F` [Compound 48-A, (4-((2R,3S,5R)-3-(3,4-difluoro-2-methoxyphenyl)-5-methyl-5-(trifluoromethyl)tetrahydrothiophene-2-carboxamido)thiophen-2-yl)boronic acid] was 91.5%.
As for `[2H][C@@]1(C(=O)Nc2csc(B(O)O)c2)S[C@@](C)(C(F)(F)F)C[C@H]1c1ccc(F)c(F)c1OC` [Compound 50-A, (4-((2R,3S,5R)-3-(3,4-difluoro-2-methoxyphenyl)-5-methyl-5-(trifluoromethyl)tetrahydrothiophene-2-carboxamido-2-d)thiophen-2-yl)boronic acid], the inhibition at 0.01 µM amounted to 80.9%.
On the same count and under the same terms, with `COc1c(C2CC(C)(C(F)(F)F)SC2C(=O)Nc2ccc(B(O)O)cc2)ccc(F)c1F` (stereo not drawn) [Compound 82, (4-(3-(3,4-difluoro-2-methoxyphenyl)-5-methyl-5-(trifluoromethyl)tetrahydrothiophene-2-carboxamido)phenyl)boronic acid] the figure was 81.1%.
For the compound `COc1c(C2CC(C)(C(F)(F)F)SC2C(=O)Nc2ccc(B(O)O)c(F)c2)ccc(F)c1F` (stereo not drawn) [Compound 88, (4-(3-(3,4-difluoro-2-methoxyphenyl)-5-methyl-5-(trifluoromethyl)tetrahydrothiophene-2-carboxamido)-2-fluorophenyl)boronic acid], the inhibition at 0.01 µM stood at 95.6%.
Same read-out and setting: with `COc1c([C@@H]2C[C@](C)(C(F)(F)F)S[C@H]2C(=O)Nc2ccc(B(O)O)c(F)c2)ccc(F)c1F` [Compound 88-A, (4-((2R,3S,5R)-3-(3,4-difluoro-2-methoxyphenyl)-5-methyl-5-(trifluoromethyl)tetrahydrothiophene-2-carboxamido)-2-fluorophenyl)boronic acid] the figure was 92.7%.
Still for that read-out and setting: with `COc1c(C2CC(C)(C(F)(F)F)SC2C(=O)Nc2ccc(B(O)O)c(Br)c2)ccc(F)c1F` (stereo not drawn) [Compound 93, (2-bromo-4-(3-(3,4-difluoro-2-methoxyphenyl)-5-methyl-5-(trifluoromethyl)tetrahydrothiophene-2-carboxamido)phenyl)boronic acid] the figure was 89.7%; with `COC(=O)c1cc(NC(=O)[C@@H]2S[C@@](C)(C(F)(F)F)C[C@H]2c2ccc(F)c(F)c2OC)ccc1B(O)O` [Compound 101-A, (4-((2R,3S,5R)-3-(3,4-difluoro-2-methoxyphenyl)-5-methyl-5-(trifluoromethyl)tetrahydrothiophene-2-carboxamido)-2-(methoxycarbonyl)phenyl)boronic acid], 77.9%; with `COc1c(C2CC(C)(C)SC2C(=O)Nc2ccnc(C(N)=O)c2)ccc(F)c1F` (stereo not drawn) [Compound 134, 4-(3-(3,4-difluoro-2-methoxyphenyl)-5,5-dimethyltetrahydrothiophene-2-carboxamido)picolinamide], 76.5%.
As to `[2H][C@@]1(C(=O)Nc2ccnc(C(N)=O)c2)S[C@@](C)(C(F)(F)F)C[C@H]1c1ccc(F)c(F)c1OC` [Compound 140-A, 4-((2R,3S,5R)-3-(3,4-difluoro-2-methoxyphenyl)-5-methyl-5-(trifluoromethyl)tetrahydrothiophene-2-carboxamido-2-d)picolinamide], the inhibition at 0.01 µM was 96.2%.
For the compound `COc1c([C@@H]2C[C@](C)(C(F)(F)F)S[C@H]2C(=O)Nc2ccc(F)c(C(N)=O)c2)ccc(F)c1F` [Compound 146-A, (2R,3S,5R)-N-(3-carbamoyl-4-fluorophenyl)-3-(3,4-difluoro-2-methoxyphenyl)-5-methyl-5-(trifluoromethyl)tetrahydrothiophene-2-carboxamide], the inhibition at 0.01 µM is 98.3%.
The same measure, in the same setting: with `COc1c(C2CC(C)(C(F)(F)F)SC2C(=O)Nc2cc[nH]c(=O)c2)ccc(F)c1F` (stereo not drawn) [Compound 170, 3-(3,4-difluoro-2-methoxyphenyl)-5-methyl-N-(2-oxo-1,2-dihydropyridin-4-yl)-5-(trifluoromethyl)tetrahydrothiophene-2-carboxamide] the figure was 97.9%; with `COc1c(C2CC(C)(C(F)(F)F)SC2C(=O)Nc2ccn(C)c(=O)c2)ccc(F)c1F` (stereo not drawn) [Compound 172, 3-(3,4-difluoro-2-methoxyphenyl)-5-methyl-N-(1-methyl-2-oxo-1,2-dihydropyridin-4-yl)-5-(trifluoromethyl)tetrahydrothiophene-2-carboxamide], 86.5%.
On the same count and under the same terms, the value for `COc1c(C2CC(C)(C(F)(F)F)SC2C(=O)Nc2ccc(=O)n(C)c2)ccc(F)c1F` (stereo not drawn) [Compound 178, 3-(3,4-difluoro-2-methoxyphenyl)-5-methyl-N-(1-methyl-6-oxo-1,6-dihydropyridin-3-yl)-5-(trifluoromethyl)tetrahydrothiophene-2-carboxamide] was 86%; that for `COc1c([C@@H]2C[C@](C)(C(F)(F)F)S[C@H]2C(=O)Nc2ccc(=O)n(C)c2)ccc(F)c1F` [Compound 178-A, (2R,3S,5R)-3-(3,4-difluoro-2-methoxyphenyl)-5-methyl-N-(1-methyl-6-oxo-1,6-dihydropyridin-3-yl)-5-(trifluoromethyl)tetrahydrothiophene-2-carboxamide] was 90.2%.

For the origin of these results see patent publication EP4813993A1, “COMPOUND, PREPARATION METHOD THEREFOR, AND USE THEREOF” (Sichuan Kelun Pharmaceutical Research Institute Co., Ltd., priority 2023, dated 2025).
